According to patent US6472526B1, “Imidazole derivatives having an inhibitory activity for farnesyl transferase and process for preparation thereof” (LG Chemical Ltd., priority 1997, dated 2002):

Assays:
Ras farnesyl transferase [1] = target: T1, Ras farnesyl transferase (Rattus norvegicus, UniProt Q02293+Q04631); experiment: In vivo (cellular) inhibitory activity for Ras farnesyl transferase, Rat2 cell line which expresses C-Harvey-Ras protein; format: cell-based; details: Rat2 cell line expressing C-Harvey-Ras; concentration inhibiting 50% of farnesyl bonding of Ras protein; read-out: H-Ras CIC50
T1 construct: endogenous in cells; host or cells: Rat2 fibroblasts transformed with H-Ras or with an H-Ras/K-Ras C-terminus fusion
Description: (§1) In the present experiment, Rat2 cell line which expresses C-Harvey-Ras protein having transforming activity and Rat2 cell line (Korean patent application No. 97-14409) which is transformed with fused protein of H-Ras substituted with polybasic lysine domain at C-terminus of K-Ras were used. The experiment was performed by the modified Declue's method (Declue. J. E. et al., Cancer Research, 1991, 51, 712). Hereinafter, the experimental method will be described in more detail.
(§2) 3×10^5 cells of transformed Rat2 fibroblast cell line were sprayed on 60 mm cell cultivation dish and cultivated for 48 hours in a cell incubator at 37° C. and after 50% or more of density was reached, it was treated with the test compounds. The compound according to the present invention dissolved in dimethylsulfoxide (DMSO) was used. 1% concentration of dimethylsulfoxide was used in both control and test groups. After 4 hours from the treatment with the compound, methionine labeled with 150 μCi of radioactive isotope [^35S] per 1 ml of medium was added and after cultivating for 20 hours, the cells were, washed with physiological saline water. The cells were lysed using 1 ml of cold cell lysis buffer solution (50 mM of Sodium HEPES buffer solution containing 5mM of magnesium chloride, 1 mM of DTT, 1% NP 40, 1 mM of EDTA, 1 mM of PMSF, 2 μM of leupeptin, 2 μM of pepstatin A and 2 μM of antipain) and the supernatant wherein the cells were lysed was obtained by high-velocity centrifugation of 12,000 g×5 minutes. The amount of radioisotope in the supernatant was measured and standardized to obtain a quantitative result in immunoprecipitation reaction and then, Y13-259, a monoclonal antibody specifically binding to Ras protein (Furth, M. E. et al., J. Virol, 1982, 43, 294) was added and reacted for 15 hours at 4° C. Protein A(combined with goat anti-murine immunoglobulin antibody)-agarose suspension was added to the solution and reacted for 1 hour at 4° C. and then, to remove the unspecific binding product, immunoprecipitates were washed with a buffer solution (50 mM Tris chloride buffer solution containing 50 mM of sodium chloride, 0.5% of sodium dioxycolate, 0.5% of NP 40 and 0.1% of SDS). The precipitates were added to a buffer solution for electrophoresis and boiled and then, electrophoresis was performed using 13.5% of SDS polyacrylamide gel. After electrophoresis, the gel was fixed and dried. Then, the gel was exposed to X-ray film, developed printed. From the result of the experiment, intensities of band of in combined with or without farnesyl of Ras protein were measured, the concentration of the test compound inhibiting 50% of farnesyl bonding was defined as […], an in vivo Ras farnesyl transferase inhibitory activity.

Ras farnesyl transferase [2] = target: T2, Ras farnesyl transferase (Homo sapiens, UniProt P49354+P49356); experiment: In vitro inhibitory activity for Ras farnesyl transferase, H-Ras substrate; format: biochemical; details: recombinant farnesyl transferase 4.5 nM, Ras substrate protein 1.5 μM, tritium-farnesylpyrophosphate 0.15 μM, 30 minutes at 37° C.; read-out: H-Ras IC50
T2 construct: made in house
Description: In the present experiment, Ras farnesyl transferase produced by genetic recombination techniques according to the improved Pompliano's method (Pompliano et al., Biochemistry, 1992, 31, 3800) was used, and Ras substrate (Ras-CVLS) protein described in Korean Patent Appln. No. 97-14409 was used after it has been purified according to the known method (see, Chung et al., Biochimica et Biophysica Acta, 1992, 278, 1129).
The enzyme reaction was performed in 50 μl of 50 mM Sodium HEPES buffer solution containing 25 mM of potassium chloride, 25 mM of magnesium chloride, 10 mM of DTT and 50 μM of zinc chloride. 1.5 μM of Ras substrate protein, 0.15 μM of tritium-farnesylpyrophosphate and 4.5 nM of farnesyl transferase were used.
More specifically, in the initial step, farnesyl transferase was added to the above buffer solution, reaction was maintained for 30 minutes at 37° C. and then the reaction was stopped by adding 1 ml of ethanol solution containing 1M HCl. The formed precipitates were adsorbed to GF/B filter using Hopper harvestor(Hopper #FH 225V) for filter-binding, washed with ethanol, and then radioactivity of the dried filter was measured using LKB β counter. Enzyme titer was measured in the unsaturated state of substrate where the concentrations of Ras substrate protein and farnesyl transferase have quantitative relationship. The compound according to the present invention dissolved in dimethyl sulfoxide (DMSO) was added to the reaction solution in an amount of less than 5% of the total reaction solution, and then the enzyme inhibitory activity thereof was measured. The enzyme inhibitory activity was represented by percentage of the amount of farnesyl incorporated into the Ras substrate protein in the presence of the test compound to that in the absence of the test compound. IC50 of the test compound was defined as the concentration at which 50% of the enzyme activity was inhibited.

Ras farnesyl transferase [3] = target: T1, Ras farnesyl transferase; experiment: In vivo (cellular) inhibitory activity for Ras farnesyl transferase, Rat2 cell line transformed with fused protein of H-Ras substituted with polybasic lysine domain at C-terminus of K-Ras; format: cell-based; details: Rat2 cell line transformed with H-Ras fused with polybasic lysine domain of K-Ras C-terminus; concentration inhibiting 50% of farnesyl bonding; read-out: K-Ras CIC50
Description: as §1, §2

Ras farnesyl transferase [4] = target: T2, Ras farnesyl transferase; experiment: In vitro inhibitory activity for Ras farnesyl transferase, K-Ras substrate; format: biochemical; details: in vitro farnesyl transferase assay, K-Ras; read-out: K-Ras IC50

Row | Structure (SMILES) | IC50 (Ras farnesyl transferase [1]) [nM] | IC50 (Ras farnesyl transferase [2]) [nM] | IC50 (Ras farnesyl transferase [3]) [nM] | IC50 (Ras farnesyl transferase [4]) [nM]
1 | C[C@@H](c1ccccc1)n1cncc1Cn1cc(C(=O)N2CCN(C)CC2)c(-c2cccc3ccccc23)c1 [Compound 13, 1-[1-((S)-α-Methylbenzyl)-1H-imidazol-5-ylmethyl]-3-(4-methylpiperazin-1-yl)carbonyl-4-(naphthalen-1-yl)-1H-pyrrole] | 12.5 | 0.85 | 10000 to 50000 | 5
2 | COCCN(C)C(=O)c1cn(Cc2cncn2CCc2ccccc2)cc1-c1cccc2ccccc12 [Compound 14, 3-[N-(2-Methoxyethyl)-N-methyl]carbamoyl-4-(naphthalen-1-yl)-1-[1-(phenethyl)-1H-imidazol-5-ylmethyl]-1H-pyrrole] | 12.5 | 2 | 10000 to 50000 | 5
3 | O=C(c1cn(Cc2cncn2CCc2ccccc2)cc1-c1cccc2ccccc12)N1CCOCC1 [Compound 15] | 25 | 5 | 10000 to 50000 | 10
4 | CN1CCN(C(=O)c2cn(Cc3cncn3CCc3ccccc3)cc2-c2cccc3ccccc23)CC1 [Compound 16, 3-(4-Methylpiperazin-1-yl)carbonyl-4-(naphthalen-1-yl)-1-[1-(phenethyl)-1H-imidazol-5-ylmethyl)-1H-pyrrole] | 12.5 | 1.2 | 10000 to 50000 | 5
5 | COCCN(C)C(=O)c1cn(Cc2cncn2CCc2ccccc2OC)cc1-c1cccc2ccccc12 [Compound 17, 3-[N-(2-Methoxyethyl)-N-methyl]carbamoyl-1-[1-(2-methoxy)phenethyl-1H-imidazol-5-yl]methyl-4-(naphthalen-1-yl)-1H-pyrrole] | 25 | 2 | 10000 to 50000 | 3
6 | COc1ccccc1CCn1cncc1Cn1cc(C(=O)N2CCN(C)CC2)c(-c2cccc3ccccc23)c1 [Compound 18, 1-[1-(2-Methoxy)phenethyl-1H-imidazol-5-yl]methyl-3-[4-methylpiperazin-1-yl]carbonyl-4-(naphthalen-1-yl)-1H-pyrrole] | 25 | 1 | 10000 to 50000 | 2
7 | COCCN(C)C(=O)c1cn(Cc2cncn2CCc2ccc(OC)cc2)cc1-c1cccc2ccccc12 [Compound 19, 3-[N-(2-Methoxyethyl)-N-methyl]carbamoyl-1-[1-(4-methoxy)phenethyl-1H-imidazol-5-yl]methyl-4-(naphthalen-1-yl)-1H-pyrrole] | 20 | 1 | 10000 to 50000 | 3
8 | COc1ccc(CCn2cncc2Cn2cc(C(=O)N3CCN(C)CC3)c(-c3cccc4ccccc34)c2)cc1 [Compound 20, 1-[1-(4-Methoxy)phenethyl-1H-imidazol-5-yl]methyl-3-[4-methylpiperazin-1-yl]carbonyl-4-(naphthalen-1-yl)-1H-pyrrole] | 20 | 1 | 10000 to 50000 | 2
9 | COCCN(C)C(=O)c1cn(Cc2cncn2CCc2ccccc2F)cc1-c1cccc2ccccc12 [Compound 21, 1-[1-(2-Fluoro)phenethyl-1H-imidazol-5-yl]methyl-3-[N-(2-methoxyethyl)-N-methyl]carbamoyl-4-(naphthalen-1-yl)-1H-pyrrole] | 21 | 1 | 10000 to 50000 | 1

Continued, values first:

Row | IC50 (Ras farnesyl transferase [1]) [nM] | IC50 (Ras farnesyl transferase [2]) [nM] | IC50 (Ras farnesyl transferase [3]) [nM] | IC50 (Ras farnesyl transferase [4]) [nM] | Structure (SMILES)
10 | 20 | 1 | 10000 to 50000 | 2 | CN1CCN(C(=O)c2cn(Cc3cncn3CCc3ccccc3F)cc2-c2cccc3ccccc23)CC1 [Compound 22, 1-[1-(2-Fluoro)phenethyl-1H-imidazol-5-yl]methyl-3-[4-methylpiperazin-1-yl]carbonyl-4-(naphthalen-1-yl)-1H-pyrrole]
11 | 23 | 2 | 10000 to 50000 | 2 | COCCN(C)C(=O)c1cn(Cc2cncn2CCc2ccccc2Cl)cc1-c1cccc2ccccc12 [Compound 23, 1-[1-(2-Chloro)phenethyl-1H-imidazol-5-yl]methyl-3-[N-(2-methoxyethyl)-N-methyl]carbamoyl-4-(naphthalen-1-yl)-1H-pyrrole]
12 | 25 | 2 | 10000 to 50000 | 3 | CN1CCN(C(=O)c2cn(Cc3cncn3CCc3ccccc3Cl)cc2-c2cccc3ccccc23)CC1 [Compound 24, 1-[1-(2-Chloro)phenethyl-1H-imidazol-5-yl]methyl-3-[4-methylpiperazin-1-yl]carbonyl-4-(naphthalen-1-yl)-1H-pyrrole]
13 | 15 | 2 | 10000 to 50000 | 5 | COCCN(C)C(=O)c1cn(Cc2cncn2CCc2cccc(Cl)c2)cc1-c1cccc2ccccc12 [Compound 25, 1-[1-(3-Chloro)phenethyl-1H-imidazol-5-yl]methyl-3-[N-(2-methoxyethyl)-N-methyl]carbamoyl-4-(naphthalen-1-yl)-1H-pyrrole]
14 | 15 | 2 | 10000 to 50000 | 3 | CN1CCN(C(=O)c2cn(Cc3cncn3CCc3cccc(Cl)c3)cc2-c2cccc3ccccc23)CC1 [Compound 26, 1-[1-(3-Chloro)phenethyl-1H-imidazol-5-yl]methyl-3-[4-methylpiperazin-1-yl]carbonyl-4-(naphthalen-1-yl)-1H-pyrrole]
15 | 25 | 6 | 10000 to 30000 | 5 | COCCN(C)C(=O)c1cn(Cc2cncn2CCCc2ccccc2)cc1-c1cccc2ccccc12 [Compound 27, 3-[N-(2-Methoxyethyl)-N-methyl]carbamoyl-4-(naphthalen-1-yl)-1-[1-(3-pheny)propyl-1H-imidazol-5-yl]methyl-1H-pyrrole]
16 | 20 | 1 | 10000 to 30000 | 2 | CN1CCN(C(=O)c2cn(Cc3cncn3CCCc3ccccc3)cc2-c2cccc3ccccc23)CC1 [Compound 28]
17 | 10 | 2 | 10000 to 20000 | 4 | COCCN(C)C(=O)c1cn(Cc2cncn2Cc2ccc3ccccc3c2)cc1-c1cccc2ccccc12 [Compound 29, 3-[N-(2-Methoxyethyl)-N-methyl]carbamoyl-4-(naphthalen-1-yl)-1-[1-(naphthalen-2-yl)methyl-1H-imidazol-5-yl]methyl-1H-pyrrole]
18 | 10 | 2 | 10000 to 20000 | 4 | CN1CCN(C(=O)c2cn(Cc3cncn3Cc3ccc4ccccc4c3)cc2-c2cccc3ccccc23)CC1 [Compound 30]
